Test results: paper PMC5494507, “γ‐Secretase inhibitors in cancer clinical trials are pharmacologically and functionally distinct” (EMBO Molecular Medicine, 2017)

Legend:
SPPL2a = target: T1, SPPL2a (Mus musculus, UniProt Q9JJF9); experiment: Endogenous CD74 P8 turnover in A20 cells (Western blot, In-1 antibody), biomarker for SPPL2a cleavage; type: cell-based; conditions: 16 h
T1 construct: To verify the finding in a non‐overexpressing cell line; endogenous in cells; host or cells: A20 (ATCC TIB-208)
T1 sequence (Q9JJF9 26-523): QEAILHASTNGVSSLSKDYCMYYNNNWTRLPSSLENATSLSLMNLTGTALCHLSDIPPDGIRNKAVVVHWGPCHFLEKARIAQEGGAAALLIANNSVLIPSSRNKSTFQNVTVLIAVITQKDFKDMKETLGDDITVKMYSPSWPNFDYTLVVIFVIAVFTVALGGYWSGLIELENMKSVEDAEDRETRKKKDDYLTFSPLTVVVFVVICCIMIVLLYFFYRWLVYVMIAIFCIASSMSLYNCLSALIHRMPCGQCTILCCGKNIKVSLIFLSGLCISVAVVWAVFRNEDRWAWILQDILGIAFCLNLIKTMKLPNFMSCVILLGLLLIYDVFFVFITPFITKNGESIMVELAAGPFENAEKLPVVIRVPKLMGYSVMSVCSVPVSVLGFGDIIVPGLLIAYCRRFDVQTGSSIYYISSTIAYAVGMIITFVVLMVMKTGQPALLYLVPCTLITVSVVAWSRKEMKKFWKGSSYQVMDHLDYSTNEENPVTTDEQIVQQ
Method: To verify the finding in a non‐overexpressing cell line, we applied the inhibitors to the mouse B lymphocyte cell line A20 (ATCC TIB‐208).
SPPL2a, SPPL2b, SPP, and chimeric substrate FBA were generated as previously described (Ran et al, 2015). A20 cells (TIB‐208; ATCC, Manassas, VA, USA) were cultured in RPMI‐1640 medium (ATCC) supplied with 10% fetal bovine serum, 1% penicillin/streptomycin, and 0.05 mM 2‐mercaptoethanol (Life Technologies). Various concentrations of GSIs and (ZLL)2‐ketone as indicated in figures were applied to transfected HEK 293t cells at 70–90% confluence or A20 cells at a density of 5 × 10^5 cells/ml with fresh media in 48‐well format for 16 h. Cells and conditioned media were used for WB, IP, and ELISA.
(§1) Sandwich ELISAs used for Aβ detection were performed as previously described (Murphy et al, 1999; Ran et al, 2014). Briefly, Aβ and Aβ‐like peptides in conditioned media were captured with Ab5 antibody and detected with horseradish peroxidase labeled mAb 4G8 (Biolegend). Synthetic Aβ1‐40 was used as standard. All ELISAs were developed with TMB substrate (KPL, Gaithersburg, Maryland, USA). Bis‐Tris precast gels (Biorad, Hercules, CA, USA) were used for all SDS–PAGE. Monoclonal anti‐FLAG M2 antibody (Sigma) and Aβ1‐16 antibody 6E10 (Covance) were used for Western blotting at 1:1,000 dilution. Anti‐CD74 In‐1 antibody (BD Bioscience, San Jose, CA, USA) was used for A20 cell lysate Western blotting at dilution of 1:1,000. MDA‐MB‐231 cell extracts were prepared by lysing cells in RIPA buffer containing protease and phosphatase inhibitors. The lysates were kept on ice for 30 min and vortexed every 10 min, and then centrifuged at 4°C for 10 min at 1,000 g. The supernatants were collected, and protein concentrations were determined by Bradford Assay. Pan‐NOTCH1 antibody (C‐20) (Santa Cruz Biotechnology) and cleaved NOTCH1 (Val1744) antibody ([…]) were used at 1:500 and 1:100 dilution in the test of endogenous NOTCH1 inhibition with β‐actin expression used as loading control. β‐actin antibody was used at 1:1,000 dilution (Sigma). Band intensities normalized for actin using densitometry analysis with ImageJ Software (NIH, USA).

NOTCH1 = experiment: Endogenous NOTCH1 cleavage inhibition in MDA-MB-231 cells (NICD Western blot after EDTA activation); type: cell-based; conditions: for NICD levels at 100 nM: MDA-MB-231, 100 nM
Method: To extend the study to a more physiological system, we assessed endogenous NOTCH1 cleavage inhibition using the triple‐negative breast cancer line MDA‐MB‐231 (Fig 6A). Full‐length blots are shown in source data for Fig 6. NOTCH1 cleavage was detected by Western blotting using the Cell Signaling neo‐epitope NICD antibody. […] The inhibition of endogenous APP in MDA‐MB‐231 cells was also tested by detecting accumulation of APP COOH‐terminal fragments (APP‐CTFs). […] Figure 6D summarized the APP‐CTF band intensities normalized for DMSO group. The original blots are available in source data for Fig 6.
Short‐term endogenous NOTCH1 cleavage inhibition was tested in the triple‐negative breast cancer cell lines MDA‐MB‐231 (ATCC, Manassas, VA). Cells were plated in 60 mm dishes and maintained as monolayer cultures in DMEM medium supplemented with 10% FBS, 1% penicillin/streptomycin, 1% L‐glutamine (Life Technologies), and incubated at 37°C in a humidified 5% CO2 incubator. After the cells reached ~75% confluency, cultures were pretreated with GSIs for 1 h in DMEM at 37°C in a 5% CO2 incubator. GSIs were tested at concentrations of 0, 0.1, 0.5, 2.5, and 12.5 μM. Then, EDTA (5 mM, Life Technologies) was added to the cell cultures to induce Notch activation for 5 min. Following incubation, cell extracts were prepared by lysing cells in RIPA buffer (Santa Cruz Biotechnology) containing protease and phosphatase inhibitors. Western blotting was performed using Cleaved NOTCH1 (Val1744) antibody (Cell Signaling) with β‐actin (Santa Cruz Biotechnology) as loading control. Band intensities were normalized for actin using ImageJ Software (NIH, USA).
as §1

Compound	stabilization of CD74 8 kDa NTF P8 (SPPL2a; 40 nM)	NICD levels at 100 nM (NOTCH1)	also measured
CN1C(=O)[C@@H](NC(=O)[C@H](CCC(F)(F)F)[C@H](CCC(F)(F)F)C(N)=O)N=C(c2ccccc2)c2ccccc21 [BMS‐906024]	greatly stabilized	reduced NICD to levels equal or lower than baseline	–
O=C(O)CC[C@H]1CC[C@@](c2cc(F)ccc2F)(S(=O)(=O)c2ccc(Cl)cc2)CC1 [MK‐0752]	–	–	stabilization of CD74 8 kDa NTF P8 (SPPL2a; at the tested dose): did not show stabilization activity; concentration reducing NICD to background levels or below (NOTCH1; MDA-MB-231): ≥ 0.5 µM
CCC[C@H](N[C@H]1CCc2cc(F)cc(F)c2C1)C(=O)Nc1cn(C(C)(C)CNCC(C)(C)C)cn1 [PF‐3084014]	slightly stabilized	reduced NICD to levels equal or lower than baseline	–
CC(C)(C(=O)NCC(F)(F)C(F)(F)F)C(=O)N[C@@H]1C(=O)Nc2ccccc2-c2ccccc21 [RO4929097]	greatly stabilized	reduced NICD to levels equal or lower than baseline	–
CC(C)[C@H](O)C(=O)N[C@@H](C)C(=O)N[C@@H]1C(=O)N(C)CCc2ccccc21 [Semagacestat]	–	–	stabilization of CD74 8 kDa NTF P8 (SPPL2a; 1,000 nM): weak stabilization; NICD levels (NOTCH1; MDA-MB-231, 100 nM to 12.5 μM, 1 h pretreatment then 5 mM EDTA 5 min): reduced NICD concentrations to near‐baseline levels at all concentrations tested
